Columns and labels:
Assay type in all cases: in vivo
[1] = test system: Amaranthus tamariscinus (common waterhemp, AMATA), sensitive biotype (w.1); test: greenhouse experiment, weed control, sensitive common waterhemp (w.1)
Text: (§1) The culture containers used were plastic flowerpots containing loamy sand with approximately 3.0% of humus as the substrate. The seeds of the test plants were sown separately for each species and/or resistant biotype. For the pre-emergence treatment, the active ingredients, which had been suspended or emulsified in water, were applied directly after sowing by means of finely distributing nozzles. The containers were irrigated gently to promote germination and growth and subsequently covered with transparent plastic hoods until the plants had rooted. This cover caused uniform germination of the test plants, unless this had been impaired by the active ingredients. For the post-emergence treatment, the test plants were first grown to a height of 3 to 15 cm, depending on the plant habit, and only then treated with the active ingredients which had been suspended or emulsified in water. For this purpose, the test plants were either sown directly and grown in the same containers, or they were first grown separately as seedlings and transplanted into the test containers a few days prior to treatment. Depending on the species, the plants were kept at 10-25° C. or 20-35° C., respectively. The test period extended over 2 to 4 weeks. During this time, the plants were tended, and their response to the individual treatments was evaluated. The evaluation was carried out by using a scale from 0 to 100. 100 means no emergence of the plants or complete destruction of at least the above-ground parts, and 0 means no damage, or normal course of growth.
(§2) The plants used in a first greenhouse experiment were of the following species and biotype: […]

[2] = test system: Amaranthus tamariscinus (common waterhemp, AMATA), PPO resistant biotype 1 (w.2); test: greenhouse experiment, weed control, PPO resistant biotype 1 (w.2); conditions: for activity on sensitive and resistant weeds (in words): summary of table 2: sensitive (w.1) and resistant weeds (w.2, w.3); for Weed control (%) w.2: scale 0 to 100
Text: as §1, §2

[3] = test system: Amaranthus tamariscinus (common waterhemp, AMATA), PPO resistant biotype 2 (w.3); test: greenhouse experiment, weed control, PPO resistant biotype 2 (w.3); conditions: scale 0 to 100
Text: as §1, §2

[4] = test system: Amaranthus tamariscinus (common waterhemp, AMATA), PPO resistant biotype 4 containing the ΔG210 mutation (w.6); test: another greenhouse experiment, weed control, PPO resistant biotype 4 (w.6); conditions: use rate 4 g/ha; scale 0 to 100
Text: as §1, with “100 means no emergence of the plants or complete destruction of at least the above-ground parts, and 0 means no damage, or normal course of growth.” left out

[5] = test system: Amaranthus tamariscinus (common waterhemp, AMATA), sensitive biotype (w.4); test: another greenhouse experiment, weed control, sensitive common waterhemp (w.4); conditions: use rate 4 g/ha; scale 0 to 100
Text: as §1, with “100 means no emergence of the plants or complete destruction of at least the above-ground parts, and 0 means no damage, or normal course of growth.” left out

[6] = test system: Amaranthus tamariscinus (common waterhemp, AMATA), PPO resistant biotype 3 containing the ΔG210 mutation (w.5); test: another greenhouse experiment, weed control, PPO resistant biotype 3 (w.5)
Text: as §1, with “100 means no emergence of the plants or complete destruction of at least the above-ground parts, and 0 means no damage, or normal course of growth.” left out

[7] = use rate 2 g/ha, scale 0 to 100
[8] = use rate 4 g/ha, scale 0 to 100 (100 = complete destruction, 0 = no damage)

Row | Compound | Weed control (%) w.1 [1, 7] | Weed control (%) w.1 [1, 8] | activity on sensitive and resistant weeds (in words) [2] | Weed control (%) w.2 ([2]; use rate 2 g/ha) | Weed control (%) w.2 ([2]; use rate 4 g/ha) | Weed control (%) w.3 ([3]; use rate 2 g/ha) | Weed control (%) w.3 ([3]; use rate 4 g/ha) | Weed control (%) w.6 [4] | Weed control (%) w.4 [5] | activity on sensitive and resistant weeds (in words) ([6]; summary of table 3: sensitive (w.4) and resistant weeds (w.5, w.6) containing the ΔG210 mutation) | Weed control (%) w.5 ([6]; use rate 4 g/ha, scale 0 to 100)
1 | COC(=O)CCNC(=O)C(C)Sc1cc(-n2c(=O)cc(C(F)(F)F)n(C)c2=O)c(F)cc1Cl (stereo not drawn) [(I).1, tiafenacil] | 90% | 99% | very good activity on both sensitive (w.1) and resistant weeds (w.2, w.3) | 83% | 91% | 78% | 85% | 88% | 92% | very good activity on both sensitive (w.4) and resistant weeds (w.5, w.6) | 95%
2 | C#CCOc1cc(-n2nc3n(c2=O)CCCC3)c(Cl)cc1Cl [azafenidin, reference compound] | 95% | 98% | much weaker control of resistant in comparison to sensitive biotypes | 67% | 73% | 70% | 72% | – | – | – | –

— patent US11723365B2, “Method for controlling PPO resistant weeds” (BASF SE, priority 2016, dated 2023)
